Assays:
[1] = system: catalytic antibody 72D4 (anti-2, monoclonal antibody raised against quaternary piperidinium hapten 2); experiment: Antibody 72D4 catalysed aldol addition of acetone to aldehyde 10a giving 11a, amine 7 as cofactor (RP-HPLC); format: biochemical; conditions: for Km: random bimolecular model for amine 7 and acetone; for effective molarity kcat/kapp (7): versus background reaction catalysed by 7 alone, aldehyde 10a at 200 mM
Experimental: The aldol reaction of 10a and acetone to 11a with amine 7 as cofactor was followed by direct measurement of the formation of 11a by reverse-phase HPLC. The observed background reaction was first order in acetone (0.5% to 10% v/v) and aldehyde 10a (100-2000 mM), and was also first order in catalyst, either the amine cofactor 7 (50-1500 mM) as free base or hydroxide. The corresponding rate constants are kapp (7) (third order) and kapp (OH^-) (second order) for the apparent rate constant for each process at different pH, and k(7) and kOH^- are the third order rate constants for catalysis by amine 7 as free base and hydroxide, respectively (FIG. 1).
For acetone and aldehyde 10a, the background kuncat is the second order rate constant of their apparent bimolecular reaction, catalyzed by both hydroxide and amine 7 ([7]=0.2 mM and 0.4 mM, respectively).
Aldehydes 10a-10e were used as 25 mM stock solutions in 1:1 acetonitrile/water of the RP-HPLC purified samples. Cofactor 7 was used as 25 mM stock solution in pure water of the RP-HPLC purified trifluoroacetate salt. Antibody 72D4 was purified to homogeneity (SDS PAGE) by ion exchange and Protein G chromatography as described before,^4a at 8-12 mg/mL stock solutions in either bicine (50 mM, pH 8.0) or phosphate (50 mM, pH 7.4) with 100 mM NaCl.
The setup for the kinetics of FIG. 2 is representative: a stock solution (1.8 mL) containing the antibody ([…]) and acetone (1.11% v/v) in 50 mM bicine, 100 mM NaCl, pH 8.0 was separated into four portions of […]. To each was added 3.6 mL of a 25 mM stock solution of each of the aldehydes 10a to 10d. Each […] portion was further separated into four 90 mL portions and 10 mL of solutions of amine 7 in 50 mM bicine, 100 mM NaCl (1 mM, 2 mM, 4 mM, 8 mM) were added. Finally, 50 mL of each 100 mL sample was added to 0.5 mL of a 25 mM stock solution of hapten 12 in water. In each manipulation, the samples were vigorously shaken using a Vortex shaker to ensure homogeneity.

[2] = system: catalytic antibody 72D4 (anti-2, monoclonal antibody raised against quaternary piperidinium hapten 2); experiment: Antibody 72D4 catalysed formation of α-aminonitrile 17 from amine 7, acetone and cyanide; format: biochemical
Experimental: Conditions: 50 mM bicine, 0.2M NaCN, pH 9.0, 20° C. […] The reaction was initiated by addition of a concentrated stock solution of either amine 7 or buffered NaCN (no difference was noted). As above, pairs of identical antibody solutions, with and without hapten 12 as inhibitor, were used for measuring the background and catalyzed reaction rates, respectively. 15 mL samples were quenched at 45 sec intervals by mixing with 15 mL 0.5N TFA in water, immediately frozen, and later analyzed by RP-HPLC (C-18 as above, 92.5% H2 O, 7.5% CH3 CN, tR (17)=7.8 minutes) against an internal standard (4-hydroxy-benzoic acid, tR =9.4 minutes). […] The background rate kuncat was derived from the inhibited samples (V vs. [S], 6 points, r^2 =1.0). KM and Vmax were obtained from the Lineweaver-Burk plot of 1/V vs. 1/[S] as above (50, 100, 200, 400, 800, 1600 mM 7, 6 points, r^2 =0.98).

CC(C)=O [acetone]
rate acceleration kcat/kuncat (acetone) ([1]; apparent effective molarity, acetone varied, [7]=0.2 mM, table 1): 123 M | Km ([1]; pH 8.0, 200 mM fixed aldehyde 10a, read-out: KM (acetone)): 19000 µM

NCc1ccc(C(=O)NCCO)cc1 [amine 7, N(hydroxyethyl)-4(aminomethyl)-benzamide]
kcat ([2]; pH 9.0, 1% v/v acetone, 0.2M CN-, 20° C., amine 7 varied): 0.012 s⁻¹ | Km ([2]; pH 9.0, 1% v/v acetone, 0.2M CN-, 20° C., amine 7 varied 50-1600 mM): 130 µM | Km ([1]; pH 8.0, 200 mM fixed aldehyde 10a, read-out: KM (7)): 45 µM | effective molarity kcat/kapp (7) ([1]; pH 8.0): 370 M | Km ([1]; pH 9.0, read-out: KM (7)): 95 µM | effective molarity kcat/kapp (7) ([1]; pH 9): 440 M | rate acceleration kcat/kuncat (cofactor 7) ([1]; specific activation of the cofactor upon binding to the antibody, table 1): 950

CC(=O)Nc1ccc(CC(C)C=O)cc1 (racemic) [aldehyde 10a, 4-(3'-oxo-2'-methyl-prop-1'-yl)-acetanilide]
rate acceleration kcat/kuncat (aldehyde 10a) ([1]; apparent effective molarity, aldehyde 10a varied, [7]=0.4 mM, table 1): 102 M | kcat ([1]; pH 8.0, antibody-acetone-amine complex reacting with aldehyde 10a (200 mM fixed)): 0.014 M⁻¹ s⁻¹ | kcat ([1]; pH 9.0, antibody-acetone-amine complex reacting with aldehyde 10a): 0.053 M⁻¹ s⁻¹

C[N+]1(Cc2ccc(C(=O)NCCO)cc2)CCCCC1 [hapten 12, reference compound]
inhibition of catalysis by hapten 12 ([2]; formation of α-aminonitrile 17): quantitatively inhibited | inhibition of catalytic activity by addition of hapten 12 ([1]; 250 mM hapten 12 in the assay set-up): quantitatively inhibited

From patent US5576174A, “Catalytic antibody with primary amine cofactor” (The Scripps Research Institute, priority 1995, dated 1996)
